Assay results as given in PubChem BioAssay AID328 (DTP/NCI, 2004).
Values joined by “and” are separate entries in the source; they are usually repeats but may differ in a detail not shown here. Equal entries are not always repeated. Toxic doses and inconclusive results are not listed.

Tested on: BDF1 mice, P388 leukemia ip, median survival T/C
Assay: NCI In Vivo Anticancer Drug Screen. Data for tumor model P388 Leukemia (intraperitoneal) in B6D2F1 (BDF1) mice
Conditions: endpoint: median survival time, higher = longer survival
Outline: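 Transplantable tumour in mice; compound vs vehicle dosing; survival scored; ratio of treated to control reported.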

[1] = dose: 100.0 mg/kg/injection, schedule: Q04DX003 (ip), vehicle: saline
[2] = dose: 100.0 mg/kg/injection, schedule: Q01DX009 (ip), vehicle: Klucel (hydroxypropylcellulose) (HPC)
[3] = dose: 50.0 mg/kg/injection, schedule: Q01DX009 (ip), vehicle: saline with Tween-80
[4] = dose: 100.0 mg/kg/injection, schedule: Q01DX009 (ip), vehicle: saline with Tween-80
[5] = dose: 200.0 mg/kg/injection, schedule: Q01DX009 (ip), vehicle: saline with Tween-80

CN(Cc1cnc2nc(N)nc(N)c2n1)c1ccc(C(=O)N[C@@H](CCC(=O)O)C(=O)O)cc1
T/C (dose: 0.37 mg/kg/injection, schedule: Q01DX009 (ip), vehicle: sodium bicarbonate): 172 % of control | T/C (dose: 0.38 mg/kg/injection, schedule: Q01DX009 (ip), vehicle: saline): 150 % of control and 155 % of control | T/C (dose: 0.5 mg/kg/injection, schedule: Q01DX005 (ip), vehicle: saline with Tween-80): 113 % of control | T/C (dose: 0.5 mg/kg/injection, schedule: Q01DX005 (ip), vehicle: saline): 184 % of control | T/C (dose: 0.5 mg/kg/injection, schedule: Q01DX009 (ip), vehicle: saline with Tween-80): 163 % of control | T/C (dose: 0.5 mg/kg/injection, schedule: Q01DX009 (ip), vehicle: sodium bicarbonate): 176 % of control | T/C (dose: 0.5 mg/kg/injection, schedule: Q01DX010 (ip), vehicle: other): 245 % of control | T/C (dose: 0.75 mg/kg/injection, schedule: Q01DX009 (ip), vehicle: saline): 190 % of control and 195 % of control | T/C (dose: 0.75 mg/kg/injection, schedule: Q01DX009 (ip), vehicle: sodium bicarbonate): 209 % of control | T/C (dose: 0.9 mg/kg/injection, schedule: Q01DX009 (ip), vehicle: sodium bicarbonate): 171 % of control and 190 % of control and 203 % of control | T/C (dose: 1.0 mg/kg/injection, schedule: Q01DX005 (ip), vehicle: saline with Tween-80): 104 % of control | T/C (dose: 1.0 mg/kg/injection, schedule: Q01DX005 (ip), vehicle: saline): 194 % of control | T/C (dose: 1.0 mg/kg/injection, schedule: Q01DX009 (ip), vehicle: saline with Tween-80): 181 % of control | T/C (dose: 1.0 mg/kg/injection, schedule: Q01DX009 (ip), vehicle: sodium bicarbonate): 236 % of control and 150 % of control and 181 % of control | T/C (dose: 1.0 mg/kg/injection, schedule: Q01DX010 (ip), vehicle: other): 300 % of control | T/C (dose: 1.3 mg/kg/injection, schedule: Q01DX009 (ip), vehicle: sodium bicarbonate): 228 % of control and 179 % of control and 205 % of control | T/C (dose: 1.5 mg/kg/injection, schedule: Q01DX009 (ip), vehicle: saline): 229 % of control and 222 % of control | T/C (dose: 2.0 mg/kg/injection, schedule: Q01DX009 (ip), vehicle: saline with Tween-80): 222 % of control | T/C (dose: 2.25 mg/kg/injection, schedule: Q01DX009 (ip), vehicle: sodium bicarbonate): 231 % of control | T/C (dose: 2.3 mg/kg/injection, schedule: Q01DX009 (ip), vehicle: sodium bicarbonate): 227 % of control and 239 % of control and 263 % of control | T/C (dose: 3.0 mg/kg/injection, schedule: Q01DX009 (ip), vehicle: saline): 231 % of control and 236 % of control | T/C (dose: 3.0 mg/kg/injection, schedule: Q01DX009 (ip), vehicle: sodium bicarbonate): 95 % of control and 100 % of control | T/C (dose: 3.5 mg/kg/injection, schedule: Q01DX009 (ip), vehicle: sodium bicarbonate): 241 % of control and 244 % of control and 104 % of control | T/C (dose: 8.64 mg/kg/injection, schedule: Q04DX003 (ip), vehicle: sodium bicarbonate): 182 % of control | T/C (dose: 10.0 mg/kg/injection, schedule: Q04DX004 (ip), vehicle: sodium bicarbonate): 243 % of control | T/C (dose: 14.4 mg/kg/injection, schedule: Q04DX003 (ip), vehicle: sodium bicarbonate): 199 % of control | T/C (dose: 15.0 mg/kg/injection, schedule: Q04DX004 (ip), vehicle: sodium bicarbonate): 250 % of control | T/C (dose: 20.0 mg/kg/injection, schedule: Q04DX003 (ip), vehicle: sodium bicarbonate): 221 % of control | T/C (dose: 20.0 mg/kg/injection, schedule: Q04DX004 (ip), vehicle: sodium bicarbonate): 248 % of control | T/C (dose: 24.0 mg/kg/injection, schedule: Q04DX003 (ip), vehicle: sodium bicarbonate): 202 % of control | T/C (dose: 25.0 mg/kg/injection, schedule: Q04DX003 (ip), vehicle: sodium bicarbonate): 292 % of control | T/C (dose: 25.0 mg/kg/injection, schedule: Q04DX004 (ip), vehicle: sodium bicarbonate): 248 % of control | T/C (dose: 30.0 mg/kg/injection, schedule: Q04DX003 (ip), vehicle: sodium bicarbonate): 238 % of control | T/C (dose: 40.0 mg/kg/injection, schedule: Q04DX003 (ip), vehicle: sodium bicarbonate): 237 % of control

O=C(Cc1ccc(F)cc1)c1ccccc1
T/C (dose: 100.0 mg/kg/injection, schedule: Q04DX003 (ip), vehicle: saline with Tween-80): 88 % of control | T/C (dose: 200.0 mg/kg/injection, schedule: Q04DX003 (ip), vehicle: saline with Tween-80): 111 % of control | T/C (dose: 400.0 mg/kg/injection, schedule: Q04DX003 (ip), vehicle: saline with Tween-80): 105 % of control

CC[n+]1ccc(Nc2ccc(NC(=O)c3ccc(C(=O)Nc4ccc(Nc5cc[n+](CC)c(N)n5)cc4)cc3)cc2)nc1N
T/C (dose: 0.12 mg/kg/injection, schedule: Q01DX009 (ip), vehicle: saline): 150 % of control | T/C (dose: 0.25 mg/kg/injection, schedule: Q01DX009 (ip), vehicle: saline): 150 % of control | T/C (dose: 0.25 mg/kg/injection, schedule: Q04DX003 (ip), vehicle: Klucel (hydroxypropylcellulose) (HPC)): 100 % of control | T/C (dose: 0.5 mg/kg/injection, schedule: Q01DX009 (ip), vehicle: saline): 155 % of control | T/C (dose: 0.5 mg/kg/injection, schedule: Q04DX003 (ip), vehicle: Klucel (hydroxypropylcellulose) (HPC)): 95 % of control | T/C (dose: 1.0 mg/kg/injection, schedule: Q04DX003 (ip), vehicle: Klucel (hydroxypropylcellulose) (HPC)): 109 % of control | T/C (dose: 1.65 mg/kg/injection, schedule: Q01DX009 (ip), vehicle: saline): 160 % of control | T/C (dose: 2.5 mg/kg/injection, schedule: Q01DX009 (ip), vehicle: saline): 175 % of control and 177 % of control | T/C (dose: 3.75 mg/kg/injection, schedule: Q01DX009 (ip), vehicle: saline): 170 % of control | T/C (dose: 5.0 mg/kg/injection, schedule: Q04DX003 (ip), vehicle: saline): 177 % of control | T/C (dose: 10.0 mg/kg/injection, schedule: Q01DX009 (ip), vehicle: saline): 190 % of control | T/C (dose: 20.0 mg/kg/injection, schedule: Q01DX009 (ip), vehicle: saline): 300 % of control | T/C (dose: 30.0 mg/kg/injection, schedule: Q04DX003 (ip), vehicle: saline): 195 % of control | T/C (dose: 45.0 mg/kg/injection, schedule: Q04DX003 (ip), vehicle: saline): 200 % of control | T/C (dose: 50.0 mg/kg/injection, schedule: Q04DX003 (ip), vehicle: saline): 200 % of control | T/C (dose: 65.0 mg/kg/injection, schedule: Q04DX003 (ip), vehicle: saline): 216 % of control | T/C (dose: 80.0 mg/kg/injection, schedule: Q01DX009 (ip), vehicle: saline): 109 % of control | T/C [1]: 250 % of control and 263 % of control | T/C (dose: 150.0 mg/kg/injection, schedule: Q04DX003 (ip), vehicle: saline): 104 % of control | T/C (dose: 2.5 micrograms/kg/injection, schedule: Q01DX009 (ip), vehicle: saline): 90 % of control | T/C (dose: 5.0 micrograms/kg/injection, schedule: Q01DX009 (ip), vehicle: saline): 95 % of control | T/C (dose: 10.0 micrograms/kg/injection, schedule: Q01DX009 (ip), vehicle: saline): 100 % of control

Cc1ccc(S(=O)(=O)NC(c2ccccc2)(c2ccccc2)c2ccccc2)cc1
T/C [2]: 113 % of control | T/C (dose: 200.0 mg/kg/injection, schedule: Q01DX009 (ip), vehicle: Klucel (hydroxypropylcellulose) (HPC)): 109 % of control | T/C (dose: 400.0 mg/kg/injection, schedule: Q01DX009 (ip), vehicle: Klucel (hydroxypropylcellulose) (HPC)): 90 % of control

c1ccc2c(c1)cc1c3nnnn3ncn21
T/C [3]: 106 % of control | T/C [4]: 104 % of control | T/C [5]: 89 % of control

O=C(C=C(C(F)(F)F)C(F)(F)F)c1cccc(C(F)(F)F)c1
T/C (dose: 6.25 mg/kg/injection, schedule: Q01DX009 (ip), vehicle: saline with Tween-80): 110 % of control | T/C (dose: 12.5 mg/kg/injection, schedule: Q01DX009 (ip), vehicle: saline with Tween-80): 120 % of control | T/C (dose: 12.5 mg/kg/injection, schedule: Q04DX003 (ip), vehicle: saline with Tween-80): 122 % of control | T/C (dose: 25.0 mg/kg/injection, schedule: Q01DX009 (ip), vehicle: saline with Tween-80): 110 % of control | T/C (dose: 25.0 mg/kg/injection, schedule: Q04DX003 (ip), vehicle: saline with Tween-80): 122 % of control

Nc1nc([Se])c2ncn(C3OC(CO)C(O)C3O)c2n1 (configuration not stated)
T/C (dose: 32.0 mg/kg/injection, schedule: Q01DX009 (ip), vehicle: saline): 100 % of control

Nc1cc2ccncc2c2sc3ccccc3c12
T/C [1]: 104 % of control | T/C (dose: 200.0 mg/kg/injection, schedule: Q04DX003 (ip), vehicle: saline): 97 % of control | T/C (dose: 400.0 mg/kg/injection, schedule: Q04DX003 (ip), vehicle: saline): 106 % of control

CCCCCC1c2c(cc(C)[nH]c2=O)OC(O)C1CCCC (configuration not stated)
T/C [3]: 93 % of control | T/C [4]: 90 % of control | T/C [5]: 94 % of control

Clc1nc(Cl)nc(-c2cccn2-c2ccccc2)n1
T/C (dose: 25.0 mg/kg/injection, schedule: Q01DX009 (ip), vehicle: Klucel (hydroxypropylcellulose) (HPC)): 100 % of control | T/C (dose: 50.0 mg/kg/injection, schedule: Q01DX009 (ip), vehicle: Klucel (hydroxypropylcellulose) (HPC)): 100 % of control | T/C [2]: 104 % of control | T/C (dose: 150.0 mg/kg/injection, schedule: Q01DX009 (ip), vehicle: Klucel (hydroxypropylcellulose) (HPC)): 105 % of control | T/C (dose: 225.0 mg/kg/injection, schedule: Q01DX009 (ip), vehicle: Klucel (hydroxypropylcellulose) (HPC)): 95 % of control
